In patent publication US9927437B2, “Treating neurodegenerative disease” (THE BRIGHAM AND WOMEN'S HOSPITAL, INC., priority 2013, dated 2018):
Entries after “also recorded” stand apart in the source; their conditions may differ.

Tests used:
C8-D30 astrocytes = experiment: In vitro knock-down with shRNA in C8-D30 astrocytes, LPS/IFNγ activation; assay type: cell-based, mouse; conditions: lentivirus-delivered shRNA
astrocytes = experiment: mRNA expression in astrocytes isolated from EAE NOD mice (nCounter, qPCR); assay type: in vivo, mouse
Method: Mononuclear cells were isolated from the CNS as previously described^50 with minor modifications. Naïve and EAE mice were euthanatized, and then subjected to perfusion through the left ventricle with ice-cold sterile PBS. Brains and spinal cord were then removed, minced and enzymatically dissociated with 0.05% (w/v) collagenase type III (Worthington Biochemical), 0.5% Dispase II (Roche Applied Science), 40 μg/ml DNAse I, 20 mM HEPES in HBSS) for 30 min at 37 C to make a suspension of single cells. Enzymes were inactivated with 20 ml of Ca^2+/Mg^2+-free HBSS containing 2 mM EDTA and 20 mM HEPES. The digested tissue was triturated and passed through a […] cell strainer. Cells were centrifuged and resuspended in 30% isotonic Percoll (GE Healthcare) and 40 μg/ml DNAse I, underlined by 70% isotonic Percoll, and centrifuged at 1000×g at 4° C. for 25 min. Cells were collected from the 70%-30% interphase, and sorted by FACS Aria.
These purification procedures are based on previously described dissociation and purification protocols^50,51. Isolated CNS cells, were incubated with anti-Mouse CD16/CD32 for 15 min on ice to block the Fc receptors, and stained with fluorochrome-conjugated antibody for CD11b (M1/70), CD45(90), CD3 (145-2C11), CD4 (GK1.5), and Ly6C (HK1.4), and Biotion-conjugated GSL I—isolectin B4 (Vector labs), CD105 (N418), CD140a (APA5), CD11c (N418), F4/80 (BM8), O4 (O4, Miltenyi Biotec), and CD19 (eBio1D3), and un-conjugated antibodies recognizing mouse MOG (8-18C5, Millipore), O1 (O1), and Galactocerebroside (mGlaC, Millipore). All antibodies were from Ebioscience, unless otherwise mentioned (clone number, when relevant, in parentheses). Cells were washed and incubated PE-conjugated Streptavidin and R-Phycoerythrin AffiniPure F(ab′)2 fragment of Goat Anti-Mouse IgG+IgM (H+L) (Jackson ImmunoResearch laboratories) for 20 min at 4 C in the dark. Cells were washed, incubated with 7-AAD or Fixable Viability Dye eFluor® 450 (if cells were to be used for intracellular staining), for exclusion of dead cells (FIG. S3A), and sorted as following. Microglia were sorted as CD11b^+ cells with low CD45 expression and low Ly6C (CD11b+/CD45^low/Ly6C^low), while the inflammatory monocytes were considered as CD11b^+/Ly6C^high 52. T-cells were sorted as CD3^+CD4^+ cells. Astrocytes were isolated following the depletion of lymphocytes, microglia, monocytes (FIG. S3B), and oligodendrocytes, and lymphocytes (T-cells, B-cells, and NK cells) (FIG. S3C). […] We confirmed that we had isolated a relatively pure populations of astrocytes by qPCR for the astrocyte markers^44,51 gfap, aldh1l1 and aqp4, and found them to be exclusively expressed in the astrocyte fraction (in a similar expression pattern to that of GFP^+ astrocytes sorted from Tg(GFP-hGFAP) FVB transgenic mice^49) (FIG. S3E). We used an additional cohort of markers to explore for presence of immune cells [microglia/monocytes cells—itgam (CD11b), and emr1 (F4/80), dendritic cells—itgax (CD11c), NK cells—Klrb1c (Nk1.1), T-cells—cd3, and B-cells—cd19], oligodendrocytes (mog, mbp), and neurons (syt1, snap25) (FIG. S3F, G).
100-200 ng of total RNA was hybridized with reporter and capture probes for nCounter Gene Expression code sets (Mouse Inflammation Kit, or a custom made astrocyte-oriented probe set (Table S1)), according to manufacturer's instructions (NanoString Technologies). Data were normalized to spiked positive controls and housekeeping genes (nSolver Analysis system). Transcript counts less than the mean of the negative control transcripts plus 2 standard deviations for each sample were considered background.
Nanostring generated gene expression data were analyzed by use of the Expander 6.06 platform^53. Genes were clustered using the unbiased CLICK algorithm, and each cluster was further analyzed for enrichments in transcription factors binding sites (promoter analysis).

inflammatory monocytes = experiment: Recruitment of inflammatory monocytes to the CNS of EAE NOD mice (flow cytometry); assay type: in vivo, mouse; conditions: PDMP as in FIG. 1k, CD11b+Ly6C^high or CD11b+CD45^high
[1] = tested on: Naïve C57BL/6 and NOD mice; experiment: LacCer administration to naïve mice without MOG immunization; assay type: in vivo; conditions: 10 μg per mouse, absence of MOG immunization
Method: FIGS. 12a-i. […] (a) Naïve C57BL/6 (Left panel) and NOD (right panel) mice were treated with LacCer (10 μg per mouse) or vehicle as indicated by red arrows, and EAE clinical scores was recorded. At experimental end point (day 25), astrocytes were isolated and their transcriptional profile was determined by nCounter Nanostring analysis. (b-e) EAE was induced in C57BL/6 (b, c) or NOD mice (d, e) and LacCer or vehicle were administrated as in FIGS. 1g and 1h, respectively. Splenic T-cell recall response to MOG(35-55) (20 μg/ml); proliferation (b, d) and secretion of IL-17A, IFN-γ and IL-10 cytokines (c, e). Data are representative of two independent experiments with ≥8 mice/group (mean and s.e.m.). (f-i) EAE NOD mice were treated with PDMP or vehicle during the chronic phase as in FIG. 1K. Data are representative of three independent experiments with n≥8 mice/group (mean and s.e.m.). (f) qPCR analysis of the expression of tbx21, ifng, rorc, il17A, csf2, il10, foxp3, and tgfb1 mRNA of CD3^+CD4^+ T-cells isolated from the CNS; expression is presented relative to gapdh. (g, h) Recall response to MOG(35-55) (20 μg/ml); proliferation (g) and secretion of IL-17A, IFN-γ and IL-10 cytokines (h). (i) Expression of IFN-γ, IL-17A, Foxp3 and IL-10 by splenic CD3^+CD4^+ T cells (mean and s.e.m.).

[2] = tested on: leptomeningeal phagocytes; experiment: Transcriptional response of leptomeningeal phagocytes to LPS/IFNγ; assay type: cell-based, mouse; conditions: LacCer 10 μM 1 h, LPS/IFNγ 6 h
Method: FIGS. 15a-b. […] Leptomeningeal phagocytes (a) and choroid plexus cells (b) were pre-treated for 1 h with LacCer (10 μM), or vehicle control (vehicle), followed by activation with LPS/IFNγ for 6 h, or left un-treated (control, Con). mRNA expression was determined by nCounter Nanostring analysis. Representative data of two independent experiments.
The meninges were carefully stripped from the brains of 1- to 3-day-old neonatal mice, and digested with 1% collagenase for 20 min at 37° C., and then dispersed into a single-cell level. Isolated cells, were incubated with anti-mouse CD16/CD32 for 15 min on ice to block the Fc receptors, and stained with APC-conjugated antibody for CD11b (M1/70) for 30 min at 4° C. Cells were washed, incubated with 7-AAD for exclusion of dead cells, and sorted.

shB4galt6: lentivirus-delivered shRNA against b4galt6 (TRCN0000334278; SEQ ID NO:3) (guide CGATGGACTGAACAATTTATTCTCGAGAATAAATTGTTCAGTCCACG)
up-regulation of h2-Aa, ccl5 and cxcl10 expression (C8-D30 astrocytes): significantly suppressed the up-regulation | b4galt6 and b4galt5 expression in astrocytes (astrocytes; NOD EAE, i.c.v. lentivirus at day 35, qPCR): astrocyte-specific knock-down | csf2 expression in astrocytes (astrocytes; chronic NOD EAE, 10 days after i.c.v. shRNA lentivirus): significant decrease

CCCCCCCCCC(=O)N[C@H](CN1CCOCC1)[C@H](O)c1ccccc1 [PDMP, D-threo-1-phenyl-2-decanoylamino-3-morpholino-1-propanol]
expression of demyelination-associated genes in astrocytes (astrocytes; NOD EAE progressive phase): significant reduction | expression of remyelination-associated genes in astrocytes (astrocytes; NOD EAE progressive phase): increased expression | expression of representative cluster 2 genes (ccl2, ccl5, cxcl10, il1b, nos2, opn, H2-Aa, vim) in astrocytes (astrocytes; NOD EAE progressive phase (day 100), qPCR): suppressive effects | irf1 and relB expression in astrocytes (astrocytes; NOD EAE, qPCR): subsequent suppression | frequency of inflammatory monocytes recruited to the CNS (inflammatory monocytes): significantly reduced | total numbers of inflammatory monocytes recruited to the CNS (inflammatory monocytes): significantly reduced

lactosylceramide [LacCer]
induction of EAE-like disease [1]: did not result in the induction of EAE-like disease | transcriptional response to activation of leptomeningeal phagocytes [2]: did not affect the transcriptional response; also recorded: does not affect the transcriptional response
